Consider six compounds from patent publication US11376307B2, “Compositions and methods of treating cancer with glycomimetic peptides” (SUSAVION BIOSCIENCES, INC., priority 2018, dated 2022).

Entries after “also recorded” stand apart in the source; their conditions may differ. Read-outs that look alike come from different tables or passages of the source.

A word on the Kd: it is the constant that tells how readily two partners part at equilibrium.

The target in assay [1] is T1, human ASGPR-1 (Homo sapiens, UniProt P07306).
T1 construct: The extracellular domains of receptors, which were fused with the Fc domain of immunoglobulin IgG; purchased R&D Systems
T1 sequence (P07306 62-291 limits assumed): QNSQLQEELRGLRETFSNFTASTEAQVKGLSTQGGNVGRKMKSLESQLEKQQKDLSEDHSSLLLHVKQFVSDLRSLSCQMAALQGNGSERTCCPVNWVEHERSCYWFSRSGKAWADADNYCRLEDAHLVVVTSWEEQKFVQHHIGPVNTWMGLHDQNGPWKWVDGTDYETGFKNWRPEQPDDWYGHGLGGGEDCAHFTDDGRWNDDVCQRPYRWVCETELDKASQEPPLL
Kind of assay: Solid-phase binding assay with recombinant receptors. As to the method:
(§1) Binding Assays Solid-phase binding assays were performed with streptavidin-, protein A/G-, or Nickel-coated microtiter plates (Pierce). His-tagged or Fc-fusion recombinant receptors (R&D Systems, Minneapolis, Minn.) were reconstituted in PBS. Sufficient receptors were added to wells to saturate the coating. His-tagged receptors were added to each well at a 5-fold excess over the stated capacity of the Ni coating to minimize non-specific binding of the peptide. Wells were washed three times with binding buffer (25 mM Tris HCl, pH 7.4, 150 mM NaCl, 0.05% Tween-20) to remove unbound receptor and 50 μL of 2 μM biotinylated peptide in binding buffer were added and allowed to incubate for 1 h. The wells were washed four times with binding buffer and then incubated with 50 μL of 1 μg/mL streptavidin conjugated with peroxidase (Sigma-Aldrich) for 1 h. The wells were washed five times with binding buffer and 50 μL of peroxidase substrate (1-Step™ Ultra TMB, Pierce) were added. After several minutes to allow color development, the reaction was stopped with 50 μL 1 M H3PO4 and absorbance was measured at 450 nm. Bound streptavidin was quantitated by the specific activity of peroxidase (absorbance/ng protein conjugate/min) under the conditions of the assay.
(§2) Solid-phase binding assays were performed with recombinant human receptors. Three variations of the binding assay were used in this study, all of which allowed the arms of the tetravalent peptide to have full flexibility. (i) Biotinylated peptide was bound in microtiter wells coated with streptavidin and incubated with recombinant human receptors. After extensive washing, the bound receptor was measured by peroxidase conjugated to a receptor-specific antibody. (ii) The extracellular domains of receptors, which were fused with the Fc domain of immunoglobulin IgG, were bound in wells coated with protein A/G. Biotinylated peptide was incubated with the receptors and, after extensive washing, bound peptide was measured with streptavidin conjugated with peroxidase. Or (iii), recombinant receptors with a poly-His tag were bound to Nickel-coated wells and incubated with biotinylated peptide. svL4 and sv6D contain His residues (FIGS. 1A, 1C) and can bind to the Ni coating, which was minimized by adding sufficient poly-His-tagged receptor to saturate the Ni coating.

The target of assay [2] is T2, ASGPR-1 (Homo sapiens, UniProt P07306).
T2 sequence (P07306 1-291): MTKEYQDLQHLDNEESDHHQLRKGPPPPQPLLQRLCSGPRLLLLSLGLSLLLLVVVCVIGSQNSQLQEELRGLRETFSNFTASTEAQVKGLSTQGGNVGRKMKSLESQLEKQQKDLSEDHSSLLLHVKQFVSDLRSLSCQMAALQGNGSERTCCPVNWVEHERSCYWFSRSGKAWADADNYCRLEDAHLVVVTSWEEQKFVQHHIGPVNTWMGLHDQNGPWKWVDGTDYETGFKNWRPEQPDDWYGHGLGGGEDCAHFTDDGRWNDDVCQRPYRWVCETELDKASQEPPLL
Conditions: ref [49]; cited from earlier work.

The target in assay [3] is T3, recombinant human CLEC10A (Homo sapiens, UniProt Q8IUN9).
T3 construct: The extracellular domains of receptors, which were fused with the Fc domain of immunoglobulin IgG; purchased R&D Systems
T3 sequence (Q8IUN9 61-316 limits assumed): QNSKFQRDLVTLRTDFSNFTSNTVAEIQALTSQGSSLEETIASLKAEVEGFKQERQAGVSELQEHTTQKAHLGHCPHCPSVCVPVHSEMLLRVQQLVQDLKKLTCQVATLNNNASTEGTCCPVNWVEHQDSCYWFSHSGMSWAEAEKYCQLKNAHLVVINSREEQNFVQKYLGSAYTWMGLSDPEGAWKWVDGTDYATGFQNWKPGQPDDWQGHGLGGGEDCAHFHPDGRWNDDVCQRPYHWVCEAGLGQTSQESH
Briefly: Solid-phase binding assay with recombinant receptors. Conditions: biotinylated tetravalent peptide. As to the method:
as §1, §2

Assay [4] relates to peritoneal immune cells. Briefly: Expansion of peritoneal cells after subcutaneous injection, flow cytometry. Format: in vivo, C57BL/6 mice. Conditions: 1 nmol/g s.c. on days 0, 2, 4; cells 24 h after each injection. The procedure:
FIGS. 7A-7D. Expansion of peritoneal cells in C57BL/6 mice. Mice were injected subcutaneously at a dose of 1 nmol/g body weight of svL4, sv6D or svC1. Cells in each population recovered in a peritoneal lavage are expressed as cell counts (in thousands). Cells from three mice in each treatment group were pooled for analysis. The number of cells in each population was normalized to the average recovery of total cells from all groups. For each cell type, the left-hand, middle and right-hand set of bars represent samples from mice treated with svL4, sv6D or svC1, respectively. Mice were injected on days 0, 2 and 4, and cells were collected 24 h after each injection. Day 1, open bar; day 3, grey bar; day 5, black bar. Populations that express activation markers are indicated by an asterisk.
Flow Cytometry Healthy C57BL/6 male mice, 10 weeks old, were injected subcutaneously with peptides on alternate days. Peritoneal cells were isolated from mice 24 h after dosing by injecting ice cold PBS (containing 3% FBS) into the peritoneal cavity, gently massaging the abdomen, and then collecting the fluid, which was transferred into K2EDTA-treated tubes for evaluation of specific biomarkers. Cells from three mice in each group were pooled, counted and divided among FACS tubes (1×10^6 cells per tube). Cells were washed once in PBS containing 3% FBS, then stained with 0.25 to 1 μg of fluorescently conjugated antibody per 10^6 cells in 100 μL of buffer as recommended by the manufacturer (Table 1).
Cells were incubated with the antibodies for 30 min at 4° C. in the dark. Following staining, the cells were washed two times with PBS/3% FBS and immediately analyzed with a MACSQuant flow cytometer (Miltenyi Biotech, Inc., San Diego, Calif.). Compensation was performed using single stain tubes for each color present in the analysis as well as an unstained control sample. Collection of flow cytometric data and analysis with FlowJo software, version 10.0.6 (FlowJo, LLC, Ashland, Oreg.) were performed by Biomodels LLC (Watertown, Mass.).
To examine whether increases occurred in mature immune cells, peritoneal cells from Balb/c and C57BL/6 mice were analyzed by flow cytometry after cells were stained with the markers listed in Table 1. […] To explore this observation more extensively, svL4 or sv6D was injected into C57BL/6 mice on day 0, 2 or 4. Peritoneal cells were examined by flow cytometry 24 h after each injection. Shown in FIGS. 7A-7D are results expressed as cell counts for F4/80 CD11b CD86 (mature, active macrophages); CD11c (DCs); CD11c CD86 (activated DCs); CD4 CD69 (activated T cells); CD8 CD69 (activated cytotoxic T cells); NK1.1 CD3^+ CD69 (activated NKT cells); NK1.1 CD3^− CD69 (activated NK cells); CD19 (B cells); and CD19 CD73 CD80 CD273 (memory B cells). The numbers of these mature, activated cells continued to increase with each injection.
Background: Flow cytometry measures light scatter and fluorescence of single cells or particles in a stream.

The test system of assay [5] is ID8 ovarian cancer cell line. Briefly: Murine model of ovarian cancer, sv6D and paclitaxel.
Description: Combination study of sv6D and paclitaxel. (FIG. 8A) Female C57BL/6 mice were implanted with ID8 ovarian cancer cell line. […] Body weights of mice are shown as measured on day 58, after two weeks of alternate-day subcutaneous treatment with sv6D (0.1 nmol/g) or 3 intraperitoneal doses (days 45, 47 and 49) of 18 μg/g paclitaxel in cremophor. […] (FIG. 8B) Alternate-day injections of sv6D were initiated on day 50 with peptide alone or on day 100 to mice that were previously treated with paclitaxel between day 45 and 49. […] (FIG. 8C) Kaplan-Meier survival curves for mice treated with paclitaxel, sv6D or a combination of the two in which alternate-day subcutaneous injections of sv6D was started 50 days after paclitaxel treatment.
Cells of an ovarian epithelial cancer line, ID8 [110], were implanted into the peritoneal cavity of female C57BL/6 mice at a dose of 6×10^6 cells. All animals were weighed at least weekly throughout these studies. Accumulation of ascites was monitored by increase in body weight, and animals were euthanized when end-stage behavior was expressed. […] Kaplan-Meier survival curves were analyzed by the Mantel-Cox log-rank test.
A murine ovarian cancer cell line (ID8) was implanted into the peritoneal cavity of C57BL/6 female mice on day 0. […] Progression of the cancer was monitored by body weight of animals as an indication of ascites accumulation.
For assay [6] the following is noted: ref [90], cited from earlier work.
Assay [7] has as its system STING pathway. Kind of assay: THP1-Dual reporter cells, secreted luciferase. Conditions: medium of THP1 reporter cells. Format: cell-based, human. As to the method: FIGS. 12A-12B. Conjugation with cyclic dinucleotide. (FIG. 12A) The cyclic dinucleotide, c[G(2′,5′)p-2′-AHC-A(3′,5′)p] (CDN, AHC=6-aminohexylcarbamoyl), was conjugated to N-acetylated-sv6D by a carbodiimide reaction. (FIG. 12B) The conjugate delivers the activation factor at much lower concentrations. Human THP1 monocytes, engineered to detect activation of the type 1 IFN pathway (THP1-Dual™ Cells, InvivoGen, San Diego, Calif.), were incubated 20 hours with sv6D in RPMI 1640 medium containing 10% fetal bovine serum after adding the peptide CDN conjugate. The medium was recovered and then incubated with the luciferase detection reagent (Quanti-Luc™, InvivoGen) to assay for luciferase secreted in response to activation of the STING pathway. Photons were detected with a spectrofluorometer. […] The conjugate targets M2 macrophages and tumor cells that express CLEC10A and thus would produce IFN-β within the tumor microenvironment. […]
The ability of sv6D-CDN conjugates to induce activation of the STING pathway for production of type 1 interferons (IFN-α/β) was tested by incubating human THP1 monocytes that were genetically engineered as reporter cells (InvivoGen, San Diego, Calif.), with the conjugate. […] However, luciferase was detected in the medium of cells incubated with nanomolar concentrations of sv6D-CDN conjugate.

In assay [8] the target is STING protein (Homo sapiens, UniProt Q86WV6). Conditions: refs [108,109]; cited from earlier work.
Chain of STING protein (Q86WV6 whole entry): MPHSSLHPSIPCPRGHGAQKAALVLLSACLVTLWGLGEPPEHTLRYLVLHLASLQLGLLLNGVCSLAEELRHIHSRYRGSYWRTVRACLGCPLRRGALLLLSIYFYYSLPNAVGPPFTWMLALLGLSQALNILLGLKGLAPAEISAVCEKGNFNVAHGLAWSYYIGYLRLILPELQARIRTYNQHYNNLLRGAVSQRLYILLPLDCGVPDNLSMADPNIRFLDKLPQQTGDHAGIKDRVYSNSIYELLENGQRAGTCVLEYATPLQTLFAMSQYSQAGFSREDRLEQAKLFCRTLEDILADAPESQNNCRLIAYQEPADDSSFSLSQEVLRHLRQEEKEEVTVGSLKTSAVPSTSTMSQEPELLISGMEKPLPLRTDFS
Setting [9] is: photodynamic, read-out: IC50 concentration for cell killing.

With “Asialofetuin: a multi-glycosylated protein [reference compound]”, in assay [1] (asialofetuin at 75 μM, svL4 0.2 μM), the “Inhibition of binding of svL4 to ASGPR-1” value turned out to be 53%. Also, the IC50 in assay [2] is 45600 ± 2700 nM.

Turning to “svC1: subset of svL4: the N-terminal half of the sequence; does not bind CLEC10A, used as control (VQATQSGGGS)”, the “Binding to CLEC10A” value in assay [3] is recorded as “near the level of blank wells; also recorded: does not bind”. Further, in assay [1] (biotinylated tetravalent peptide), the “Binding to ASGPR-1” value is “near the level of blank wells”. In assay [4], the “Change in mature, active peritoneal immune cell populations” value is “did not increase significantly”.

Consider `CC(=O)O[C@H]1C(=O)[C@@]2(C)[C@H]([C@H](OC(=O)c3ccccc3)[C@]3(O)C[C@H](OC(=O)[C@H](O)[C@@H](NC(=O)c4ccccc4)c4ccccc4)C(C)=C1C3(C)C)[C@]1(OC(C)=O)CO[C@@H]1C[C@@H]2O` [paclitaxel, reference compound], for which, in assay [5] (single agent, sv6D 0.1 nmol/g, control median end-stage day 122), the Median survival entry is listed as “approximately 141 days”. For the same compound, in assay [5] (treatment from day 45, sv6D 0.1 nmol/g s.c. alternate days, paclitaxel 18 μg/g i.p. x3), the “Body weight (ascites accumulation) after two weeks of treatment” value is on record as “had not significantly increased”.

For chlorin p6, the IC50 is 30 nM in assay [6] (exposed to red light, read-out: IC50 for photosensitized cell killing) and about 10 nM in assay [6] (setting [9]).

In the case of purpurin-18, the IC50 in assay [6] (setting [9]) was about 10 nM.

In the case of c[G(2′,5′)p-2′-AHC-A(3′,5′)p] [CDN], the “Concentration range needed to detect luciferase activity” value in assay [7] was “micromolar concentrations”; in assay [7] (listed as cyclic dinucleotides), “micromolar range”. In addition, in assay [8], the Kd was about 5000 nM.
